Assay results published in patent publication US20070009544A1, “Anti-allergic complex molecules” (priority 1999, published 2007).
≈ marks a conversion by molar mass, not a printed value. Numbered stars: 1 amine (or outer) side, 2 acyl side, 3 side chain; on linkers, the order of the positions; unused ones are H or OH. Square brackets hold non-standard residues; d marks the D form. Peptide text beside a SMILES is read from it. Phe(4-NH2) = Nc1ccc(C[C@H](N)C(=O)O)cc1; Suc = O=C(CCC(=O)[*:2])[*:1]

How the values were obtained:
[1] = test system: purified rat peritoneal mast cells; assay: Histamine secretion from intact mast cells incubated with peptide alone (secretagogue side effect); conditions: for Secretagogue (histamine secretion following incubation of mast cell with different concentrations of each peptide): Table 9, no allergen; for Secretagogue (histamine secretion following incubation of mast cell with different concentrations of each peptide) / basal level of histamine secretion compared to control cells: peptide alone; for histamine secretion from mast cells on incubation with increasing concentrations of peptide alone: no additional allergen; for basal level of histamine secretion compared to control cells: increasing concentrations
Experimental: Mast cells from the peritoneal cavity of C.R rats were isolated in Tyrode buffer (137 mM NaCl, 2.7 mM KC1, 1 mM MgCl2, 0.4 mM NaH2PO4, 20 mM Hepes, 1.0 mM CaCl2, 5.6 mM glucose, 1 mg/ml BSA, pH 7.2) and purified over a Ficoll gradient. A suspension of washed peritoneal cells was placed over a cushion of 30% Ficoll 400 (Pharmacia Biotech.) in buffered Saline containing 0.1% BSA; and centrifuged at 150O×g for 15 min. The purity of mast cells recovered from the bottom of the tube was >90%, as assessed by toluidine blue staining.
Purified mast cells (duplicated of 10^5 cells/0.5 ml) were incubated in Tyrode buffer with buffer or with desired concentrations of the indicated peptide for 2 h. at. 37° C. Histamine secretion was subsequently stimulated by the indicated concentration of compound 48/80 (Sigma) dissolved in Tyrode buffer. Incubation with compound 48/80 was carried out for 20 mm.in at 37° C. The reaction was terminated by placing the tubes on ice. The cells were sedimented by centrifugation at 150×g for 5 mm.in and the supernatants were collected. The amount of histamine release was determined as previously described (Aridor et al., 1990). Briefly, cell pellets were lysed using 0.1N NaOH and the volume of each sample was adjusted to 0.5 ml by H2O. Histamine content was assayed using the o-phtalaldehyde (OPT) fluorimetric method (Shore et al., 1959). Aliquots of 0.4 ml from the supernatants and cell lysates were incubated with 1.6 ml H20, 0.4 ml 1N NaOH and 0.1 ml of 10 mg/l ml OPT in methanol, for 4 min at room temperature. The reaction was terminated by the addition of 0.2 ml 3N HCl. Samples were centrifuged at 150×g for 5 min. and 0.2 ml samples were transferred to a 96 well plate. The histamine spectrofluorometric assay was run in microplates using a microplates reader (FL-600, Biotek instruments Winooski, Vt., USA). Samples were excited by light at 340 nm and read at 440 nm. Histamine release was calculated as the percentage of total histamine content (supernatant/pellet+supernatant) in each sample. Each data point represents the average of duplicate measurements. The spontaneously released histamine was subtracted.

[2] = test system: abdominal skin of C.R rats; assay: Rat skin test: intradermal injection of peptide, then intradermal compound 48/80 or vehicle, wheal area; format: in vivo; conditions: for Mean Wheal Area ± STD, Compound 48/80 / Wheal Area, Compound 48/80 (representative experiment): 0.5 hour before allergic induction; for Mean Wheal Area ± STD, Vehicle / Wheal Area, Vehicle (representative experiment): 0.5 hour before; for Mean Wheal Area ± STD, Vehicle: vehicle instead of compound 48/80
Experimental: The hair of the abdominal area of C.R rats was carefully removed with an electric clipper and a depilatory cream. In each animal the abdominal area was divided to six equal zones that were marked by pen. Each zone was either subjected to peptide treatment or served as a control. In the first set of experiments, the peptide was topically applied as follows: 36 μl of peptide solution at the indicated concentration (dissolved in 72% DMSO in saline) was applied on desired abdominal area. In the second set of experiments, the peptide was injected intradermally as follows: 20 μl of peptide solution at different concentrations (dissolved in 10% DMSO in saline) was injected intradermally to an indicated abdominal area using a 27-gauge sterile needle.
Skin tests were performed 0.5, 1 or 2 hours following application of the peptide. Skin tests were performed by injecting intradermally 20 μl of the allergen (0.1 mg/ml compound 48/80 dissolved in saline) or saline alone, into the center of each marked area on the abdominal skin using a 27-gauge sterile needle. The allergic response was monitored by outlining with a marker the wheals which developed in response to allergen or saline treatment.
To quantitate the skin test results, the marker signs were transferred onto paper with scotch tape. The areas of the wheals were outlined and calculated by a computerized planimeter (Hewlett-Packard), as previously described (Sussman et al., 1982).
Tables 10-16 presents the mean areas of the wheals, which developed in response to intradermal injection of each of the tested peptides, followed by either compound 48/80 or DDW injection applied after 0.5 or 1 hour. Two doses were tested for each peptide-20 and 200 μg (injection of 20 μl from a stock solution of 1 mg/ml or 10 mg/m respectively).
Skin tests on rats using compound 48/80 as the allergen assessed the ability of the peptides of the present invention to block allergic cutaneous reactions. The abdominal skin of the rats was subjected to peptide (indicated concentrations are listed in Tables 17A-17B below) or vehicle treatment (intradermal injection); the allergic response was induced by intradermal injection of compound 48/80 at various times; and the allergic response was quantified by calculating the area of the resultant allergic wheals.

[3] = test system: purified rat peritoneal mast cells; format: cell-based; conditions: for maximal inhibition of compound 48/80 induced histamine secretion: 600 μg/ml peptide, compound 48/80 concentration not given; for Inhibitor (extent of inhibition of histamine secretion from mast cells): Table 9, incubation with different concentrations of each peptide, then induction of the allergic reaction
Experimental: 37° C. […] Each data point represents the average of duplicate measurements. The spontaneously released histamine was subtracted.
First, the effect of compound 48/80 on exocytosis from intact mast cells was determined. […] Histamine release was determined and is presented as the net secretion that is % of the total cellular histamine following subtraction of the spontaneously released histamine. Half-maximal release was obtained at 0.1 μg/ml while maximal release was obtained at 1-10 μg/ml. Accordingly, in order to analyze the potential of each peptide to block histamine secretion, histamine secretion was induced with 5 μg/ml compound 48/80, a concentration that induces a maximal histamine release, while the cells were incubated in the presence of increasing concentrations of each peptide.
In order to investigate the ability of these peptides to block allergen-induced exocytosis, the peptides were examined for their ability to block compound 48/80 induced histamine secretion from intact mast cells in vitro. Mast cells were incubated with different concentrations of each peptide, followed by induction of histamine secretion by compound 48/80.

[4] = intradermal peptide 0.5 hour before allergic induction

Row | SMILES | Secretagogue (histamine secretion following incubation of mast cell with different concentrations of each peptide) [1] | histamine secretion from mast cells on incubation with increasing concentrations of peptide alone [1] | basal level of histamine secretion compared to control cells [1] | block of compound 48/80 induced allergic reaction in vivo, rat skin ([2]; intradermal peptide) | Mean Wheal Area ± STD, Compound 48/80 ([2]; intradermal peptide 1 mg/ml) | Mean Wheal Area ± STD, Vehicle ([2]; intradermal peptide 1 mg/ml) | Mean Wheal Area ± STD, Compound 48/80 ([2]; intradermal peptide 10 mg/ml) | Mean Wheal Area ± STD, Vehicle ([2]; intradermal peptide 10 mg/ml) | reduction of compound 48/80 induced allergic reaction [2, 4] | IC50, compound 48/80 induced histamine secretion [3] [µg/mL] | maximal inhibition of compound 48/80 induced histamine secretion [3] [%] | Inhibitor (extent of inhibition of histamine secretion from mast cells) [3] | reduction of compound 48/80 induced allergic reaction ([2]; intradermal peptide, lower dose or 1 hour before allergic induction) | Wheal Area, Vehicle (representative experiment) ([2]; intradermal peptide 1 mg/ml) [mm^2] | Wheal Area, Compound 48/80 (representative experiment) ([2]; intradermal peptide 1 mg/ml) [mm^2] | Wheal Area, Vehicle (representative experiment) ([2]; intradermal peptide 10 mg/ml) [mm^2] | Wheal Area, Compound 48/80 (representative experiment) ([2]; intradermal peptide 10 mg/ml) [mm^2]
1 | CC(C)C[C@H](NC(=O)CNC(=O)[C@H](CS)NC(=O)[C@H](CCC(=O)O)NC(=O)[C@H](CCCCN)NC(=O)[C@H](CC(C)C)NC(=O)[C@H](CC(N)=O)NC(=O)[C@H](CCC(=O)O)NC(=O)[C@H](CCCCN)NC(=O)[C@@H]1CCCN1C(=O)[C@H](C)NC(=O)[C@H](CC(C)C)NC(=O)[C@H](CC(C)C)NC(=O)[C@H](C)NC(=O)[C@H](CC(C)C)NC(=O)[C@H](CC(C)C)NC(=O)[C@@H](NC(=O)[C@H](C)NC(=O)[C@@H]1CCCN1C(=O)[C@H](CC(C)C)NC(=O)[C@H](CC(C)C)NC(=O)[C@H](C)NC(=O)[C@@H](NC(=O)[C@H](C)NC(=O)[C@H](C)NC(=O)CCC(=O)O)C(C)C)C(C)C)C(=O)N[C@@H](Cc1ccc(O)cc1)C(=O)O [WALL012] (Suc-AAVALLPAVLLALLAPKENLKECGLY-OH; C-terminus assumed) | − | did not result in histamine secretion | minor inhibition of the basal level of histamine secretion | effectively block the allergic response in vivo | 104.8 ± 12.6 (n = 5) mm^2 | 71.6 ± 13.8 (n = 5) mm^2 | 75.1 ± 8.5 (n = 5)** mm^2 | 66.7 ± 10.1 (n = 5) mm^2 | significant inhibition | 320 (≈ 115 µM) | 97.5 | +++ (+++ Potent inhibitor (≧80% inhibition)) |  |  |  |  | 
2 | CC(C)C[C@H](NC(=O)CNC(=O)[C@H](CS)NC(=O)[C@H](CCC(=O)O)NC(=O)[C@H](CCCCN)NC(=O)[C@H](CC(C)C)NC(=O)[C@H](CC(N)=O)NC(=O)[C@H](C)NC(=O)[C@H](CCCCN)NC(=O)[C@@H]1CCCN1C(=O)[C@H](C)NC(=O)[C@H](CC(C)C)NC(=O)[C@H](CC(C)C)NC(=O)[C@H](C)NC(=O)[C@H](CC(C)C)NC(=O)[C@H](CC(C)C)NC(=O)[C@@H](NC(=O)[C@H](C)NC(=O)[C@@H]1CCCN1C(=O)[C@H](CC(C)C)NC(=O)[C@H](CC(C)C)NC(=O)[C@H](C)NC(=O)[C@@H](NC(=O)[C@H](C)NC(=O)[C@H](C)NC(=O)CCC(=O)O)C(C)C)C(C)C)C(=O)N[C@@H](Cc1ccc(O)cc1)C(=O)O [WALL013] (Suc-AAVALLPAVLLALLAPKANLKECGLY-OH; C-terminus assumed) | − | did not result in histamine secretion | minor inhibition of the basal level of histamine secretion | effectively block the allergic response in vivo | 89.7 ± 13.7 (n = 4)** mm^2 | 74.7 ± 12.0 (n = 4) mm^2 | 96.4 ± 28.4 (n = 4)* mm^2 | 77.3 ± 13.5 (n = 4) mm^2 | significantly reduced | 245 (≈ 89.5 µM) | 100 | +++ (+++ Potent inhibitor (≧80% inhibition)) |  |  |  |  | 
3 | CC(C)C[C@H](NC(=O)CNC(=O)[C@H](CS)NC(=O)[C@H](CCC(=O)O)NC(=O)[C@H](CCCCN)NC(=O)[C@H](CC(C)C)NC(=O)[C@H](CC(N)=O)NC(=O)[C@H](CC(N)=O)NC(=O)[C@H](CCCCN)NC(=O)[C@@H]1CCCN1C(=O)[C@H](C)NC(=O)[C@H](CC(C)C)NC(=O)[C@H](CC(C)C)NC(=O)[C@H](C)NC(=O)[C@H](CC(C)C)NC(=O)[C@H](CC(C)C)NC(=O)[C@@H](NC(=O)[C@H](C)NC(=O)[C@@H]1CCCN1C(=O)[C@H](CC(C)C)NC(=O)[C@H](CC(C)C)NC(=O)[C@H](C)NC(=O)[C@@H](NC(=O)[C@H](C)NC(=O)[C@H](C)NC(=O)CCC(=O)O)C(C)C)C(C)C)C(=O)N[C@@H](Cc1ccc(N)cc1)C(=O)O [WALL014] (Suc-AAVALLPAVLLALLAPKNNLKECGL[Phe(4-NH2)]-OH; C-terminus assumed) | − | did not result in histamine secretion |  | effectively block the allergic response in vivo | 108.1 ± 15.0 (n = 2) mm^2 | 87.2 ± 1.9 (n = 2) mm^2 | 91.5 ± 34.9 (n = 2) mm^2 | 100.1 ± 38.9 (n = 2) mm^2 | significantly reduced | 230 (≈ 82.8 µM) | 83 | +++ (+++ Potent inhibitor (≧80% inhibition)) | no significant inhibition |  |  |  | 
4 | CC(C)C[C@H](NC(=O)CNC(=O)[C@H](CS)NC(=O)[C@H](CCC(=O)O)NC(=O)[C@H](CCCCN)NC(=O)[C@H](CC(C)C)NC(=O)[C@H](CC(N)=O)NC(=O)[C@H](CCC(N)=O)NC(=O)[C@H](CCCCN)NC(=O)[C@@H]1CCCN1C(=O)[C@H](C)NC(=O)[C@H](CC(C)C)NC(=O)[C@H](CC(C)C)NC(=O)[C@H](C)NC(=O)[C@H](CC(C)C)NC(=O)[C@H](CC(C)C)NC(=O)[C@@H](NC(=O)[C@H](C)NC(=O)[C@@H]1CCCN1C(=O)[C@H](CC(C)C)NC(=O)[C@H](CC(C)C)NC(=O)[C@H](C)NC(=O)[C@@H](NC(=O)[C@H](C)NC(=O)[C@H](C)NC(=O)CCC(=O)O)C(C)C)C(C)C)C(=O)N[C@@H](Cc1ccc(O)cc1)C(=O)O [WALL015] (Suc-AAVALLPAVLLALLAPKQNLKECGLY-OH; C-terminus assumed) | − | did not result in histamine secretion | minor inhibition of the basal level of histamine secretion | effectively block the allergic response in vivo |  |  |  |  | reduced the allergic reaction | 300 (≈ 107 µM) | 75 | ++ (++ Moderate inhibitor (50%-70% inhibition)) |  | 110.4 | 100.1 | 89.7 | 75.3
